Test results taken from patent publication US20210059977A1, “COMBINATION THERAPIES FOR THE TREATMENT OF AMYOTROPHIC LATERAL SCLEROSIS AND RELATED DISORDERS” (The General Hospital Corporation, priority 2018, published 2021).

Legend:
Type in all cases: in vivo, mice
[1] = tested on: pro-inflammatory cytokines and chemokines in spinal cord; experiment: Meso Scale Discovery multi-spot cytokine assay, spinal cord; conditions: TgSOD1-Cromolyn vs TgSOD1-Vehicle; p=0.0273
Protocol: Spinal cord frozen tissue was homogenized in ice-cold RIPA buffer (Thermo Fisher Scientific, #8990) supplemented with protease inhibitor cocktail (Thermo Fisher Scientific, #78430). Samples were centrifuged at 45,000 g for 30 minutes at 4° C. using an Optima TL ultracentrifuge and a TLA 120.2 rotor (Beckman Coulter). Expression levels of 10 pro-inflammatory cytokines and chemokines were assessed in the supernatants derived from spinal cord tissue or in the plasma, using an electrochemiluminescence-based multi-array method and MESO Quickplex SQ 120 system (MSD, Rockville, Md., USA). The 96-well V-PLEX Proinflammatory Mouse 1 Kit (Meso Scale Discovery, #K15048D) was used to measure simultaneously IFN-γ, IL-1β, IL-2, IL-4, IL-5, IL-6, CXCL1/KC/GRO, IL-10, IL-12, p70, and TNFα, following the manufacturer's instructions. Briefly, samples were diluted in the calibrator and added to the plate coated with an array of cytokine capture antibodies. […] The plate was washed with the wash buffer and the 2× Read Buffer T was added. The signal was immediately measured on a MESO QuickPlex SQ 120 instrument and was analyzed using the DISCOVERY WORKBENCH 4.0 software (Meso Scale Diagnostics, LLC., Rockville, Md., USA). Protein concentrations in the supernatants or the plasma samples were measured using the Pierce BCA protein assay kit (Thermo Scientific). […]

[2] = tested on: pro-inflammatory cytokines and chemokines in plasma; experiment: Meso Scale Discovery multi-spot cytokine assay, plasma
Protocol: Spinal cord frozen tissue was homogenized in ice-cold RIPA buffer (Thermo Fisher Scientific, #8990) supplemented with protease inhibitor cocktail (Thermo Fisher Scientific, #78430). Samples were centrifuged at 45,000 g for 30 minutes at 4° C. using an Optima TL ultracentrifuge and a TLA 120.2 rotor (Beckman Coulter). Expression levels of 10 pro-inflammatory cytokines and chemokines were assessed in the supernatants derived from spinal cord tissue or in the plasma, using an electrochemiluminescence-based multi-array method and MESO Quickplex SQ 120 system (MSD, Rockville, Md., USA). The 96-well V-PLEX Proinflammatory Mouse 1 Kit (Meso Scale Discovery, #K15048D) was used to measure simultaneously IFN-γ, IL-1β, IL-2, IL-4, IL-5, IL-6, CXCL1/KC/GRO, IL-10, IL-12, p70, and TNFα, following the manufacturer's instructions. Briefly, samples were diluted in the calibrator and added to the plate coated with an array of cytokine capture antibodies. Samples were incubated in the plate for 2 hours with shaking at room temperature, followed by washes with the wash buffer provided in the kit. The detection antibody solution was added to each well and the plate was incubated for 2 hours. The plate was washed with the wash buffer and the 2× Read Buffer T was added. The signal was immediately measured on a MESO QuickPlex SQ 120 instrument and was analyzed using the DISCOVERY WORKBENCH 4.0 software (Meso Scale Diagnostics, LLC., Rockville, Md., USA). Protein concentrations in the supernatants or the plasma samples were measured using the Pierce BCA protein assay kit (Thermo Scientific). Values in the graphs represent levels of cytokines normalized to the corresponding protein concentrations. […] Females (19 WtSOD1-Vehicle, 17 WtSOD1-Cromolyn, 19 TgSOD1-Vehicle, and 17 TgSOD1-Cromolyn) and Males (18 WtSOD1-Vehicle, 21 WtSOD1-Cromolyn, 21 TgSOD1-Vehicle, 17 TgSOD1-Cromolyn). […] The same pro-inflammatory panel from Meso Scale Discovery was used to assess the levels of cytokines and chemokines in the plasma of a subset of mice (Females: 13 WtSOD1-Vehicle, 15 WtSOD1-Cromolyn, 6 TgSOD1-Vehicle, and 6 TgSOD1-Cromolyn; and Males: 14 WtSOD1-Vehicle, 10 WtSOD1-Cromolyn, 6 TgSOD1-Vehicle, 3 TgSOD1-Cromolyn). We were able to measure 7 of the 10 pro-inflammatory cytokines in plasma which included IL-1β, IL-2, IL-5, IL-6, CXCL1, IL-10, and TNFα.

GPR35 = GPR35 western blots, spinal cord; conditions: non-lumbar region of the spinal cord; TgSOD1-Cromolyn vs TgSOD1-Vehicle; p=0.167
Protocol: Western blots were performed as previously described (Mueller et al., 2018). Briefly, […] of mouse spinal cord protein was re-suspended in sample buffer, boiled at 95° C. for 5 minutes, and fractioned on 10-20% Tricine gels (Life Technologies), and the membrane was then blocked with 5% milk in tris-buffered saline with Tween 20 (TBST) before immunodetection with antibodies specific for the following: GPR35 (Novus Biologicals, Littleton, Colo.; NBP2-24640), and beta-actin (Cell Signaling Technology, Danvers, Mass.; 4967S). Primary antibody incubation overnight was followed by 4 washes (15 min, RT) in TBST before incubation with the secondary antibody for 1 h (HRP-conjugated goat anti-rabbit IgG Jackson ImmunoResearch Laboratories, West Grove, Pa.; and HRP-conjugated goat anti-mouse Bio-Rad Laboratories Hercules, Calif.). After 4 washes in TBST (15 min, RT) proteins were visualized using the ECL detection system (NEN, Boston, Mass.). GPR35 integrated density values (IDV) were normalized to beta-actin.
149 male and female age- and litter-matched transgenic (Tg) SOD1^G93A and wild-type (Wt) SOD1^G93A mice were used with the following breakdown: Females (19 WtSOD1-Vehicle, 17 WtSOD1-Cromolyn, 19 TgSOD1-Vehicle, and 17 TgSOD1-Cromolyn) and Males (18 WtSOD1-Vehicle, 21 WtSOD1-Cromolyn, 21 TgSOD1-Vehicle, 17 TgSOD1-Cromolyn).

Question: What does the source list for `O=C(O)c1cc(=O)c2c(OCC(O)COc3cccc4oc(C(=O)O)cc(=O)c34)cccc2o1` [cromolyn, cromolyn sodium]?
Answer: CXCL1 levels in spinal cord [1]: significant decrease; TNFα levels in spinal cord [1]: significant decrease; IL-10 levels in plasma ([2]; TgSOD1-Cromolyn vs TgSOD1-Vehicle, p=0.0095): significantly decreased; IL-2 levels in plasma ([2]; TgSOD1-Cromolyn vs TgSOD1-Vehicle, p=0.0211): significantly decreased; IL-6 levels in plasma ([2]; TgSOD1-Cromolyn vs TgSOD1-Vehicle, p=0.0273): significantly decreased; TNFα levels in plasma ([2]; TgSOD1-Cromolyn vs TgSOD1-Vehicle, p=0.110): trend towards a decrease; IL-1β levels in plasma ([2]; between groups): no statistically significant difference; IL-5 levels in plasma ([2]; between groups): no statistically significant difference; GPR35 levels (western blot, normalized to beta-actin) (GPR35): trend towards an increase
